Measurements as given in PMC8305076, “Comprehensive Evaluation of Biological Effects of Pentathiepins on Various Human Cancer Cell Lines and Insights into Their Mode of Action” (International Journal of Molecular Sciences, 2021).

How the values were obtained:
[1] = system: HAP-1, HAP-1.KO.GPx1, Siso and A2780 cells; parameters: method as in PMID 32311219; key: no impact (0); weak impact (+); strong impact (++); conditions: summary grade; first generation compound; cited from earlier work
bovine erythrocyte GPx1 = biological target: T1, bovine erythrocyte GPx1 (Bos taurus, UniProt P00435); parameters: method as in PMID 32311219; key to GPx1 inhibition: no impact (0); weak impact (+); strong impact (++); conditions: cited from earlier work
T1 construct: the isolated enzyme from bovine erythrocytes; purchased Sigma-Aldrich (Taufkirchen, Germany); host or cells: isolated from bovine erythrocytes
T1 sequence (P00435 1-205): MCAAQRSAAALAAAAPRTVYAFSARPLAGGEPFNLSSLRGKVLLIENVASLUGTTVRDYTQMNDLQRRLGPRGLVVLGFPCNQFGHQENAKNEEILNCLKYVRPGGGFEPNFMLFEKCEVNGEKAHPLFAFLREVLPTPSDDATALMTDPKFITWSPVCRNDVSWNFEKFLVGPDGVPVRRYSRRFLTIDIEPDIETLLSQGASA

[2] = system: panel of 14 human cancer cell lines; parameters: method as in PMID 32311219; key: no impact (0); weak impact (+); strong impact (++); conditions: summary grade; first generation compound; cited from earlier work
pBR322 plasmid DNA = system: pBR322 plasmid DNA; parameters: method as in PMID 32311219; key: no impact (0); weak impact (+); strong impact (++); conditions: summary grade; first generation compound; cited from earlier work
[3] = system: HAP-1, HAP-1.KO.GPx1, A2780 and Siso; parameters: method as in PMID 32311219; key: no impact (0); weak impact (+); strong impact (++); conditions: summary grade; first generation compound; cited from earlier work
[4] = system: HAP-1, HAP-1.KO.GPx1, A2780, and Siso; parameters: method as in PMID 32311219; key: no impact (0); weak impact (+); strong impact (++); conditions: summary grade; first generation compound; cited from earlier work
[5] = system: HAP-1, HAP-1.KO.GPx1, and Siso; parameters: method as in PMID 32311219; key: no impact (0); weak impact (+); strong impact (++); conditions: summary grade; first generation compound; cited from earlier work
seven cancer cell lines = system: seven cancer cell lines; parameters: method as in PMID 32311219; key: no impact (0); weak impact (+); strong impact (++); conditions: summary grade; first generation compound; cited from earlier work
GR/CAT = system: GR/CAT; parameters: method as in PMID 32311219; key: no impact (0); weak impact (+); strong impact (++); conditions: summary grade; first generation compound; cited from earlier work
[6] = system: panel of 14 human cancer cell lines; parameters: method as in PMID 32311219; key: no impact (0); weak impact (+); strong impact (++); conditions: summary grade; first generation compound; cited from earlier work; remark: listed apart in the source
Siso = experiment: alkaline Comet assay; type: cell-based, human; conditions: 25 µM pentathiepin or 20 µM H2O2, 15 min, 0 °C
Description: (§1) Next, the potential of the pentathiepins 1–6 to damage nuclear DNA was investigated in the cell lines HAP-1, HAP-1.KO.GPx1, and Siso, with different expression levels of GPx1 and CAT (see Figure 7), by Comet Assay (Figure 12) with representative images in the Supplementary Materials (Figure S48).
(§2) With this assay, the intensity of DNA damage can be assessed on the level of a single cell, in case of the alkaline version detecting both single and double strand breaks as well as alkali-labile sites. The method presented here is an adaptation of the protocol published by Olive and Banath and based on the distinct electrophoretic mobility of damaged and intact genomic DNA. The latter has a low mobility; does thus not migrate in the electric field; and remains in a nucleoid shape after lysis, referred to as the comet head. In contrast, when strand breaks are created, free charged ends emerge and increase the electrophoretic mobility, prompting DNA segments to drift away from the comet head, thereby forming the so-called comet tail. As descriptor of still intact genomic DNA, the percentage of DNA in the comet head was selected. Per condition, 50,000 cells of either Siso, HAP-1, or HAP-1.KO.GPx1 were diluted in 1 mL of PBS and subsequently treated with either a 1% DMF aqueous solution as negative control, 20 µM of H2O2 as positive control, or 25 µM of pentathiepin for 15 min on ice to impair intracellular DNA repair mechanisms. Afterwards, 400 µL of the cell suspension was blended with 1.2 mL of a 1% low melting point agarose solution (40 °C) and smoothly distributed on agarose-precoated glass slides. Polymerization was finished after 3 min at RT, and the slides were horizontally submerged in alkaline lysis buffer (1.2 M NaCl, 0.1% N-lauryl-sarcosinate, 0.1 M Na-EDTA, 0.26 M NaOH) before storing them at 4 °C overnight. The slides were then rinsed three times in rinse/electrophoresis buffer (0.002 M Na-EDTA, 0.03 M NaOH) before electrophoretic separation was performed for 25 min at 0.6 V/cm. A neutralization step by adding distilled water was followed by staining the slides with 250 µL of an aqueous 10 µg/mL PI solution for 20 min. For visualization and image capturing, a DMi8 fluorescent microscope and LASX software (Leica Microsystems, Wetzlar, Germany) were used, and the comets scored with the help of CometScore2.0 (rexhoover.com). Per condition and replicate, at least 100 comets were analyzed to calculate a mean level of damage.

HAP-1 = experiment: alkaline Comet assay; type: cell-based, human; conditions: 25 µM pentathiepin or 20 µM H2O2, 15 min, 0 °C
Description: as §1, §2

HAP-1.KO.GPx1 [7] = experiment: alkaline Comet assay; type: cell-based, human; conditions: 25 µM pentathiepin or 20 µM H2O2, 15 min, 0 °C
Description: as §1, §2

caspase-3 and -7 in Siso = experiment: luminescent caspase activity assay; type: cell-based, human; conditions: pentathiepins IC90, doxorubicin 0.5 µM, 24 h
Description: (§3) To further corroborate this mode of cell death, we performed a luminescent caspase assay by measuring caspase-3 (cas-3) and caspase-7 (cas-7) activities (Figure 16). Both are executioner caspases that are present as zymogens (35 kDa) and become active after being cleaved (fragment sizes 17 and 19 kDa) by initiator caspases. Activated cas-3 and -7 in turn have several other substrates, including PARP1. In this assay, a precursor with a caspase-specific target sequence was converted into its luminescent form by active caspase-3 or -7, thereby emitting light that can be quantified.
(§4) To study the activation of the effector caspases -3 and -7, we performed a luminescence-based assay according to the manufacturer’s instructions (Caspase-Glo, Promega, Walldorf, Germany). Briefly, 5000 cells were seeded in 0.1 mL per well of a 96-well plate and allowed to adhere overnight. […] Afterwards, the standard protocol was followed, including a 30 min incubation time before measurement of luminescent signals by using the Spectramax i3x (Molecular Devices, Sunnyvale, CA, USA). After subtraction of the background luminescence the positive control and treatment conditions were related to the negative control.

[8] = system: caspase-3 and -7 in HAP-1.KO.GPx1; experiment: luminescent caspase activity assay; type: cell-based, human; conditions: pentathiepins IC90, doxorubicin 0.5 µM, 24 h
Description: as §3, §4

[9] = system: caspase-3 and -7 in HAP-1; experiment: luminescent caspase activity assay; type: cell-based, human; conditions: pentathiepins IC90, doxorubicin 0.5 µM, 24 h
Description: as §3, §4

[10] = system: caspase-3 and -7 in A2780; experiment: luminescent caspase activity assay; type: cell-based, human; conditions: pentathiepins IC90, doxorubicin 0.5 µM, 24 h
Description: as §3, §4

HAP-1.KO.GPx1 [11] = experiment: annexin V-FITC/PI apoptosis assay; type: cell-based, human; conditions: pentathiepins IC90, doxorubicin 0.5 µM, 24 h
Protocol: As reported in our earlier publication, a representative pentathiepin was capable of inducing apoptosis in cancer cell lines. Here, we tested compounds 1–6 for their ability to trigger this particular modality of cell death in a subset of four cell lines: HAP-1, HAP-1.KO.GPx1, A2780, and Siso. A flow cytometric assay was performed, allowing us to discriminate between viable, early, and late apoptotic cells (representative dot plots can be found in Figure S47). FITC-labeled annexin V was used to assess the externalization of phosphatidyl serine as a hallmark of early apoptosis induction. The addition of propidium iodide (PI) enabled the detection of late apoptotic cells as it only permeates porous cell membranes and exerts fluorescence once bound to double-stranded DNA.
The annexin V-FITC/PI assay, which discriminates between viable, early, and late apoptotic cells within a sample population, was performed according to the manufacturer’s instructions (Miltenyi Biotec, Teterow, Germany). Briefly, 125,000 cells were seeded in 2 mL per well of a 6-well plate, allowed to adhere overnight, and subsequently treated with the respective pentathiepin (IC90, see Table S4) diluted in 3 mL of medium. After incubation periods of 6, 24, or 48 h, the cells were harvested, washed with the provided binding buffer, and stained with the annexin V-FITC reagent for 20 min at room temperature (RT) in the dark. After another washing step, the pellet was resuspended, and PI was added immediately before flow cytometric measurement at λEx/Em = 488/525 ± 50 nm for FITC and λEx/Em = 488/655–730 nm for PI with the MACSquant Analyzer 10 (Miltenyi Biotec, Teterow, Germany).

PARP1 in HAP-1 = experiment: Western blot of cleaved PARP1; type: cell-based, human; conditions: pentathiepins IC90, doxorubicin 0.5 µM, 24 h
Protocol: (§5) In addition to general flow cytometric and microscopic analyses, Western blotting was performed to detect the apoptosis-relevant protein PARP1 (poly(ADP-ribose) polymerase 1) and its cleavage fragment (Figure 17 and Figures S29–S34). Full-length PARP1 (116 kDa) is involved in DNA repair, and a cleavage by caspases (fragment sizes 24 and 89 kDa) caused by caspase-3 and -7 is a hallmark of late apoptosis.
(§6) All detected specific bands were normalized to the total protein load per lane by the TGX stain-free gel system from Bio-Rad.
(§7) All Western blot analyses were performed with reagents, material, and devices purchased from Bio-Rad (Feldkirchen, Germany) if not stated otherwise. To obtain protein lysates, we seeded cells and treated them as described for the other methods. […] Cells were harvested by trypsinization and centrifugation for 5 min at 500× g. After a washing step with PBS, the cell pellet was resuspended in lysis buffer (Tris 50 mM (pH 7.4), 100 mM NaCl, 100 mM NaF, 5 mM EDTA, 0.2 mM Na3VO4, 0.1% Triton-X, and 1% protease inhibitor cocktail added immediately before use). Lysis was supported by incubating the samples for 10 min in an ultrasonic bath before centrifuging for 10 min at 18,000 × g and 4 °C. Protein quantification was performed via the Bradford method using ROTI®nanoquant reagent (Carl Roth GmbH, Karlsruhe, Germany) and bovine serum albumin as calibration standard. For electrophoretic separation, 15–40 µg of protein was loaded per well of a polyacrylamide gel (Mini- or Midi-Protean® TGX stain-free gel, Bio-Rad, Feldkirchen, Germany), and subsequent blotting was performed with Trans-Blot®Turbo™TransferPack Mini or Midi PVDF membranes from Bio-Rad (Feldkirchen, Germany). The membranes were blocked with a 10% non-fat milk powder solution in Tris-buffered saline (TBS; 2.42 g/L Tris, 8.48 g/L NaCl in water) plus 0.5% Tween-20 (TBST) for 1 h at RT. Incubation with primary antibodies took place over night at 4 °C in a 1:1000 dilution in TBST containing BSA (1%). The secondary antibodies conjugated to horse-radish peroxidase were diluted 1:10,000 in TBST and 1% BSA, and incubated for 4 h at RT. A detection step followed, applying Clarity™Western ECL substrate with subsequent imaging via the INTAS Advanced Fluorescence Imager. Between all incubation steps, the blots were washed three times for 10 min with TBST. The bands were quantified with the ImageLab software and normalized using the total protein quantification of the TGX stain-free gel system from Bio-Rad.

PARP1 in HAP-1.KO.GPx1 = experiment: Western blot of cleaved PARP1; type: cell-based, human; conditions: pentathiepins IC90, doxorubicin 0.5 µM, 24 h
Protocol: as §5, §6, §7

Compound: CCOc1c2c(c3cnc4cc(C)c(C)cc4n13)SSSSS2 [(c)]
- Morphological changes [1]: +
- GPx1 inhibition (bovine erythrocyte GPx1; summary grade, first generation compound): +
- Antiproliferative effect [2]: +
- DNA cleavage (pBR322 plasmid DNA): +
- Ferroptosis [3]: 0
- Apoptosis [4]: +
- Comet formation [5]: +
- ROS induction (seven cancer cell lines): +
- GR/CAT inhibition (GR/CAT): 0
- Cytotoxicity [6]: +

Compound: OO [Compound H2O2, hydrogen peroxide]
- intact genomic DNA (Comet head) (Siso): about 10%
- intact genomic DNA (Comet head) (HAP-1): 63%
- intact genomic DNA (Comet head) (HAP-1.KO.GPx1 [7]): 5%

Compound: COc1cccc2c1C(=O)c1c(O)c3c(c(O)c1C2=O)C[C@@](O)(C(=O)CO)C[C@@H]3O[C@H]1C[C@H](N)[C@H](O)[C@H](C)O1 [doxorubicin, reference compound]
- caspase-3 and -7 activity vs solvent control (caspase-3 and -7 in Siso): activation of the caspase-3 and -7 was confirmed
- caspase-3 and -7 activity vs solvent control [8]: activation of the caspase-3 and -7 was confirmed
- caspase-3 and -7 activity vs solvent control [9]: activation of the caspase-3 and -7 was confirmed
- caspase-3 and -7 activity vs solvent control [10]: activation of the caspase-3 and -7 was confirmed
- early apoptotic cells (HAP-1.KO.GPx1 [11]): about 50%
- cleaved PARP1 (PARP1 in HAP-1): detected to statistically significant extents
- cleaved PARP1 (PARP1 in HAP-1.KO.GPx1): detected to statistically significant extents

Compound: O=C(O)CC(S)C(=O)O (stereo not drawn) [mercaptosuccinic acid]
- IC50 (bovine erythrocyte GPx1; GPx1 inhibition): 5.9 µM
